# In patent publication US8076487B2, “Pyridone derivative and herbicide” (Kumiai Chemical Industry Co., Ltd., priority 2006, dated 2011):
# Experiments:
# Assay type in all cases: in vivo
# [1] = tested on: Japanese bulrush (Scirpus juncoides Roxb.); assay: Test Example 1: herbicidal effect by soil application to paddy field; conditions: paddy field soil application; active ingredient 1,000 g per 1 hectare; wettable powder added dropwise to water surface the day after sowing; examined on the 21st day after application
# Outline: (§1)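 Plants were sown in flooded (3 cm) paddy soil and evaluated for herbicidal effect 21 days after soil application in a greenhouse.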
# [2] = tested on: early watergrass (Echinochloa oryzicola Vasing); assay: as above; conditions: paddy field soil application; active ingredient 1,000 g per 1 hectare; wettable powder added dropwise to water surface the day after sowing; examined on the 21st day after application
# Outline: as §1
# [3] = tested on: heartshape false pickerelweed (Monochoria vaginalis (Burm.f.) C.Presl); assay: as above; conditions: paddy field soil application; active ingredient 1,000 g per 1 hectare; wettable powder added dropwise to water surface the day after sowing; examined on the 21st day after application
# Outline: as §1
# [4] = tested on: slender amaranth (Amaranthus viridis L.); assay: Test Example 2: herbicidal effect by soil application to upland field; conditions: soil surface spray, upland field soil, 1,000 g active ingredient per hectare, 21st day after application
# Outline: (§2)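 Dose was 1,000 g active ingredient per hectare, applied as a wettable powder diluted in water and sprayed evenly over the soil of sown, covered pots at a 1,000 L/ha equivalent. Effect was judged by a standard scale 21 d later under greenhouse conditions.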
# [5] = tested on: barnyardgrass (Echinochloa crus-galli (L.) P. Beauv. var. crus-galli); assay: as above; conditions: soil surface spray, upland field soil, 1,000 g active ingredient per hectare, 21st day after application
# Outline: as §2
# [6] = tested on: velvetleaf (Abutilon theophrasti medicus); assay: as above; conditions: soil surface spray, upland field soil, 1,000 g active ingredient per hectare, 21st day after application
# Outline: as §2
# [7] = tested on: green foxtail (Setaria viridis (L.) P. Beauv.); assay: as above; conditions: soil surface spray, upland field soil, 1,000 g active ingredient per hectare, 21st day after application
# Outline: as §2
# [8] = tested on: slender amaranth (Amaranthus viridis L.); assay: Test Example 3: herbicidal effect by application to upland field (foliage treatment); conditions: 14th day after application; for herbicidal effect (index), Slender Amaranth: foliage treatment, plants grown two weeks, 1,000 g active ingredient per hectare
# Outline: (§3)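 Seeds went into pots of field soil and grew under glass for two weeks. The whole plant was then sprayed from above with diluted wettable powder delivering 1,000 g/ha of active ingredient. Plants stayed in the greenhouse, and injury was graded against a standard 14 days after spraying.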
# [9] = tested on: barnyardgrass (Echinochloa crus-galli (L.) P. Beauv. var. crus-galli); assay: as above; conditions: 14th day after application; for herbicidal effect (index), Barnyardgrass: foliage treatment, plants grown two weeks, 1,000 g active ingredient per hectare
# Outline: as §3
# [10] = tested on: velvetleaf (Abutilon theophrasti medicus); assay: as above; conditions: 14th day after application; for herbicidal effect (index), Velvetleaf: foliage treatment, plants grown two weeks, 1,000 g active ingredient per hectare
# Outline: as §3
# [11] = tested on: green foxtail (Setaria viridis (L.) P. Beauv.); assay: as above; conditions: 14th day after application; for herbicidal effect (index), Green Foxtail: foliage treatment, plants grown two weeks, 1,000 g active ingredient per hectare
# Outline: as §3
# [12] = foliage treatment, 1,000 g active ingredient per 1 hectare, greenhouse
SMILES,"herbicidal effect, Scirpus juncoides Roxb. [1]","herbicidal effect, Echinochloa oryzicola Vasing [2]","herbicidal effect, Monochoria vaginalis (Burm. f.) C. Presl [3]","herbicidal effect (index), Slender Amaranth [4]","herbicidal effect (index), Barnyardgrass [5]","herbicidal effect (index), Velvetleaf [6]","herbicidal effect (index), Green Foxtail [7]","herbicidal effect, Slender Amaranth [8, 12]","herbicidal effect, Barnyardgrass [9, 12]","herbicidal effect, Velvetleaf [10, 12]","herbicidal effect, Green Foxtail [11, 12]","herbicidal effect (index), Slender Amaranth [8]","herbicidal effect (index), Barnyardgrass [9]","herbicidal effect (index), Velvetleaf [10]","herbicidal effect (index), Green Foxtail [11]"
Cn1ncc(C(=O)c2ccc(C(F)(F)F)n(-c3ccccc3)c2=O)c1O [IV-62],5 (90% or more of herbicidal effect and crop phytotoxicity),5 (90% or more of herbicidal effect and crop phytotoxicity),5 (90% or more of herbicidal effect and crop phytotoxicity),5 (90% or more of herbicidal effect and crop phytotoxicity),5 (90% or more of herbicidal effect and crop phytotoxicity),5 (90% or more of herbicidal effect and crop phytotoxicity),5 (90% or more of herbicidal effect and crop phytotoxicity),5 (90% or more of herbicidal effect and crop phytotoxicity),5 (90% or more of herbicidal effect and crop phytotoxicity),5 (90% or more of herbicidal effect and crop phytotoxicity),5 (90% or more of herbicidal effect and crop phytotoxicity),,,,
C[S+]([O-])CCn1c(C(F)(F)F)ccc(C(=O)C2=C(O)CCCC2=O)c1=O (stereo not drawn) [I-66],5 (90% or more of herbicidal effect and crop phytotoxicity),5 (90% or more of herbicidal effect and crop phytotoxicity),5 (90% or more of herbicidal effect and crop phytotoxicity),5 (90% or more of herbicidal effect and crop phytotoxicity),5 (90% or more of herbicidal effect and crop phytotoxicity),5 (90% or more of herbicidal effect and crop phytotoxicity),5 (90% or more of herbicidal effect and crop phytotoxicity),,,,,5 (90% or more of herbicidal effect and crop phytotoxicity),5 (90% or more of herbicidal effect and crop phytotoxicity),5 (90% or more of herbicidal effect and crop phytotoxicity),5 (90% or more of herbicidal effect and crop phytotoxicity)
N#Cc1ccc(-n2c(C(F)(F)F)ccc(C(=O)C3=C(O)CCCC3=O)c2=O)cc1 [I-95],5 (90% or more of herbicidal effect and crop phytotoxicity),5 (90% or more of herbicidal effect and crop phytotoxicity),5 (90% or more of herbicidal effect and crop phytotoxicity),5 (90% or more of herbicidal effect and crop phytotoxicity),5 (90% or more of herbicidal effect and crop phytotoxicity),5 (90% or more of herbicidal effect and crop phytotoxicity),5 (90% or more of herbicidal effect and crop phytotoxicity),,,,,5 (90% or more of herbicidal effect and crop phytotoxicity),5 (90% or more of herbicidal effect and crop phytotoxicity),5 (90% or more of herbicidal effect and crop phytotoxicity),5 (90% or more of herbicidal effect and crop phytotoxicity)
